Assay results taken from US12077503B2, “Substituted cyclic amides and their use as herbicides” (FMC CORPORATION, priority 2015, dated 2024).

Legend:
Format in all cases: in vivo
[1] = tested on: velvetleaf (Abutilon theophrasti); test: Test G Pre-Emergence Protocol; details: Abutilon theophrasti, pre-emergence, 312 h, evaluated after 13 days; for pest or weed control at 15.625 g/ha: 15.625 g ai/ha; for pest or weed control at 15.625 g/ha / pest or weed control at 250 g/ha: read-out: Velvetleaf damage rating (100=total damage to plant; 0=no damage to plant); for pest or weed control at 62.5 g/ha: 62.5 g ai/ha, 100=total damage to plant, 0=no damage to plant, read-out: Velvetleaf damage rating; for pest or weed control at 250 g/ha: 250 g ai/ha
Outline: (§1)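 Under a 24/16° C day/night regime with 14 h light and 65% humidity, sown pots were sprayed after one day with compound (15.625, 62.5 or 250 g/ha; 50:50 acetone/water, 0.5% Tween 20). Damage was assessed visually 13 days later, 0 to 100.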

[2] = tested on: corn (Zea mays); test: Test G Pre-Emergence Protocol; details: Zea mays, pre-emergence, 312 h, evaluated after 13 days; for plant injury at 15.625 g/ha: 15.625 g ai/ha; for plant injury at 15.625 g/ha / plant injury at 250 g/ha: read-out: Corn damage rating (100=total damage to plant; 0=no damage to plant); for plant injury at 62.5 g/ha: 62.5 g ai/ha, 100=total damage to plant, 0=no damage to plant, read-out: Corn damage rating; for plant injury at 250 g/ha: 250 g ai/ha
Outline: as §1

[3] = tested on: ivy-leaved morning glory (Ipomoea hederacea); test: Test G Pre-Emergence Protocol; details: Ipomoea, pre-emergence, 312 h, evaluated after 13 days; for pest or weed control at 15.625 g/ha: 15.625 g ai/ha; for pest or weed control at 15.625 g/ha / pest or weed control at 250 g/ha: read-out: Morningglory, Ivy-leaved damage rating (100=total damage to plant; 0=no damage to plant); for pest or weed control at 62.5 g/ha: 62.5 g ai/ha, 100=total damage to plant, 0=no damage to plant, read-out: Morningglory, Ivy-leaved damage rating; for pest or weed control at 250 g/ha: 250 g ai/ha
Outline: as §1

[4] = tested on: barnyardgrass (Echinochloa crus-galli); test: Test G Pre-Emergence Protocol; details: Echinochloa crus-galli, pre-emergence, 312 h, evaluated after 13 days; for pest or weed control at 15.625 g/ha: 15.625 g ai/ha; for pest or weed control at 15.625 g/ha / pest or weed control at 250 g/ha: read-out: Barnyardgrass damage rating (100=total damage to plant; 0=no damage to plant); for pest or weed control at 62.5 g/ha: 62.5 g ai/ha, 100=total damage to plant, 0=no damage to plant, read-out: Barnyardgrass damage rating; for pest or weed control at 250 g/ha: 250 g ai/ha
Outline: as §1

[5] = tested on: redroot pigweed (Amaranthus retroflexus); test: Test G Pre-Emergence Protocol; details: Amaranthus retroflexus, pre-emergence, 312 h, evaluated after 13 days; for pest or weed control at 15.625 g/ha: 15.625 g ai/ha; for pest or weed control at 15.625 g/ha / pest or weed control at 250 g/ha: read-out: Pigweed, Redroot damage rating (100=total damage to plant; 0=no damage to plant); for pest or weed control at 62.5 g/ha: 62.5 g ai/ha, 100=total damage to plant, 0=no damage to plant, read-out: Pigweed, Redroot damage rating; for pest or weed control at 250 g/ha: 250 g ai/ha
Outline: as §1

[6] = tested on: giant foxtail (Setaria faberi); test: Test G Pre-Emergence Protocol; details: Setaria faberi, pre-emergence, 312 h, evaluated after 13 days; for pest or weed control at 15.625 g/ha: 15.625 g ai/ha; for pest or weed control at 15.625 g/ha / pest or weed control at 250 g/ha: read-out: Foxtail, Giant damage rating (100=total damage to plant; 0=no damage to plant); for pest or weed control at 62.5 g/ha: 62.5 g ai/ha, 100=total damage to plant, 0=no damage to plant, read-out: Foxtail, Giant damage rating; for pest or weed control at 250 g/ha: 250 g ai/ha
Outline: as §1

[7] = tested on: velvetleaf (Abutilon theophrasti); test: Test G Post-Emergence Protocol; details: Abutilon theophrasti, post-emergence, 312 h, read-out: Velvetleaf damage rating; for pest or weed control at 15.625 g/ha: 15.625 g ai/ha, evaluated after 13 days (100=total damage to plant; 0=no damage to plant); for pest or weed control at 62.5 g/ha: 62.5 g ai/ha; for pest or weed control at 62.5 g/ha / pest or weed control at 250 g/ha: evaluated after 13 days, 100=total damage to plant, 0=no damage to plant; for pest or weed control at 250 g/ha: 250 g ai/ha
Outline: (§2)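 Values are percent visual injury at 13 days after treatment (0 none, 100 total). Treatment was a post-emergence spray at 15.625, 62.5 or 250 g/ha on 8-day-old pot plants kept at 24/16 °C.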

[8] = tested on: corn (Zea mays); test: Test G Post-Emergence Protocol; details: Zea mays, post-emergence, 312 h, read-out: Corn damage rating; for plant injury at 15.625 g/ha: 15.625 g ai/ha, evaluated after 13 days (100=total damage to plant; 0=no damage to plant); for plant injury at 62.5 g/ha: 62.5 g ai/ha; for plant injury at 62.5 g/ha / plant injury at 250 g/ha: evaluated after 13 days, 100=total damage to plant, 0=no damage to plant; for plant injury at 250 g/ha: 250 g ai/ha
Outline: as §2

[9] = tested on: ivy-leaved morning glory (Ipomoea hederacea); test: Test G Post-Emergence Protocol; details: Ipomoea, post-emergence, 312 h, read-out: Morningglory, Ivy-leaved damage rating; for pest or weed control at 15.625 g/ha: 15.625 g ai/ha, evaluated after 13 days (100=total damage to plant; 0=no damage to plant); for pest or weed control at 62.5 g/ha: 62.5 g ai/ha; for pest or weed control at 62.5 g/ha / pest or weed control at 250 g/ha: evaluated after 13 days, 100=total damage to plant, 0=no damage to plant; for pest or weed control at 250 g/ha: 250 g ai/ha
Outline: as §2

[10] = tested on: barnyardgrass (Echinochloa crus-galli); test: Test G Post-Emergence Protocol; details: Echinochloa crus-galli, post-emergence, 312 h, read-out: Barnyardgrass damage rating; for pest or weed control at 15.625 g/ha: 15.625 g ai/ha, evaluated after 13 days (100=total damage to plant; 0=no damage to plant); for pest or weed control at 62.5 g/ha: 62.5 g ai/ha; for pest or weed control at 62.5 g/ha / pest or weed control at 250 g/ha: evaluated after 13 days, 100=total damage to plant, 0=no damage to plant; for pest or weed control at 250 g/ha: 250 g ai/ha
Outline: as §2

[11] = tested on: redroot pigweed (Amaranthus retroflexus); test: Test G Post-Emergence Protocol; details: Amaranthus retroflexus, post-emergence, 312 h, read-out: Pigweed, Redroot damage rating; for pest or weed control at 15.625 g/ha: 15.625 g ai/ha, evaluated after 13 days (100=total damage to plant; 0=no damage to plant); for pest or weed control at 62.5 g/ha: 62.5 g ai/ha; for pest or weed control at 62.5 g/ha / pest or weed control at 250 g/ha: evaluated after 13 days, 100=total damage to plant, 0=no damage to plant; for pest or weed control at 250 g/ha: 250 g ai/ha
Outline: as §2

[12] = tested on: giant foxtail (Setaria faberi); test: Test G Post-Emergence Protocol; details: Setaria faberi, post-emergence, 312 h, read-out: Foxtail, Giant damage rating; for pest or weed control at 15.625 g/ha: 15.625 g ai/ha, evaluated after 13 days (100=total damage to plant; 0=no damage to plant); for pest or weed control at 62.5 g/ha: 62.5 g ai/ha; for pest or weed control at 62.5 g/ha / pest or weed control at 250 g/ha: evaluated after 13 days, 100=total damage to plant, 0=no damage to plant; for pest or weed control at 250 g/ha: 250 g ai/ha
Outline: as §2

| SMILES | pest or weed control at 15.625 g/ha [1] | pest or weed control at 62.5 g/ha [1] | pest or weed control at 250 g/ha [1] | plant injury at 15.625 g/ha [2] | plant injury at 62.5 g/ha [2] | plant injury at 250 g/ha [2] | pest or weed control at 15.625 g/ha [3] | pest or weed control at 62.5 g/ha [3] | pest or weed control at 250 g/ha [3] | pest or weed control at 15.625 g/ha [4] | pest or weed control at 62.5 g/ha [4] | pest or weed control at 250 g/ha [4] | pest or weed control at 15.625 g/ha [5] | pest or weed control at 62.5 g/ha [5] | pest or weed control at 250 g/ha [5] | pest or weed control at 15.625 g/ha [6] | pest or weed control at 62.5 g/ha [6] | pest or weed control at 250 g/ha [6] | pest or weed control at 15.625 g/ha [7] | pest or weed control at 62.5 g/ha [7] | further results |
| --- | --- | --- | --- | --- | --- | --- | --- | --- | --- | --- | --- | --- | --- | --- | --- | --- | --- | --- | --- | --- | --- |
| CC1OC(=O)c2c(NC(=O)[C@H]3C(=O)N(C)C[C@@H]3c3ccc(C(F)(F)F)cc3)cccc21 (mixture of isomers) [Compound 1670] | 0% | 0% | 0% | 0% | 0% | 0% | 0% | 0% | 0% | 0% | 0% | 0% | 0% | 0% | 20% | 0% | 20% | 50% | 0% | 0% | pest or weed control at 250 g/ha [7]: 0%; plant injury at 15.625 g/ha [8]: 0%; plant injury at 62.5 g/ha [8]: 0%; plant injury at 250 g/ha [8]: 10%; pest or weed control at 15.625 g/ha [9]: 0%; pest or weed control at 62.5 g/ha [9]: 0%; pest or weed control at 250 g/ha [9]: 0%; pest or weed control at 15.625 g/ha [10]: 0%; pest or weed control at 62.5 g/ha [10]: 20%; pest or weed control at 250 g/ha [10]: 60%; pest or weed control at 15.625 g/ha [11]: 0%; pest or weed control at 62.5 g/ha [11]: 20%; pest or weed control at 250 g/ha [11]: 90%; pest or weed control at 15.625 g/ha [12]: 0%; pest or weed control at 62.5 g/ha [12]: 70%; pest or weed control at 250 g/ha [12]: 80% |
| CN1C[C@H](c2ccc(C(F)(F)F)cc2)[C@@H](C(=O)Nc2cncnc2Cl)C1=O (racemic) [Compound 1748] | 0% | 0% | 0% | 0% | 0% | 0% | 0% | 0% | 0% | 0% | 0% | 0% | 0% | 0% | 0% | 0% | 0% | 0% | 0% | 0% | pest or weed control at 250 g/ha [7]: 0%; plant injury at 15.625 g/ha [8]: 0%; plant injury at 62.5 g/ha [8]: 0%; plant injury at 250 g/ha [8]: 0%; pest or weed control at 15.625 g/ha [9]: 0%; pest or weed control at 62.5 g/ha [9]: 0%; pest or weed control at 250 g/ha [9]: 0%; pest or weed control at 15.625 g/ha [10]: 0%; pest or weed control at 62.5 g/ha [10]: 0%; pest or weed control at 250 g/ha [10]: 0%; pest or weed control at 15.625 g/ha [11]: 0%; pest or weed control at 62.5 g/ha [11]: 0%; pest or weed control at 250 g/ha [11]: 0%; pest or weed control at 15.625 g/ha [12]: 0%; pest or weed control at 62.5 g/ha [12]: 0%; pest or weed control at 250 g/ha [12]: 0% |
